Measured values from ChEMBL document CHEMBL1201862, “PubChem BioAssay data set” (2004).
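1) Cells in 96-well plates. 2) Compound, 48 h, 5 concentrations. 3) Linear interpolation between surrounding doses. 4) Unreached endpoint = highest concentration. Here, GI50 denotes the concentration required for 50% inhibition of growth.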 Active and inactive are the calls of the source. Cut-off read from the data, not from the text of the source: active = GI50 up to about 1.1 µM and inactive = higher.

What was measured:
Assay in all cases: growth of human tumour cells (NCI), 48 h
ACHN = system: ACHN
HCT-116 = system: HCT-116
HL-60 = system: HL-60
Hs-578T = system: Hs-578T
LOX IMVI = system: LOX IMVI
M14 = system: M14
MDA-N = system: MDA-N
Malme-3M = system: Malme-3M
OVCAR-3 = system: OVCAR-3
OVCAR-5 = system: OVCAR-5
OVCAR-8 = system: OVCAR-8
SK-MEL-28 = system: SK-MEL-28
SK-OV-3 = system: SK-OV-3
SN12C = system: SN12C
SNB-19 = system: SNB-19
SNB-75 = system: SNB-75
SR = system: SR
T47D = system: T47D
TK-10 = system: TK-10

Row | SMILES | GI50 (ACHN) | GI50 (HCT-116) | GI50 (HL-60) | GI50 (Hs-578T) | GI50 (LOX IMVI) | GI50 (M14) | GI50 (MDA-N) | GI50 (Malme-3M) | GI50 (OVCAR-3) | GI50 (OVCAR-5) | GI50 (OVCAR-8) | GI50 (SK-MEL-28) | GI50 (SK-OV-3) | GI50 (SN12C) | GI50 (SNB-19) | GI50 (SNB-75) | GI50 (SR) | GI50 (T47D) | GI50 (TK-10)
1 | COC(C(O)CO)C(O)C(O)C(=O)NNc1ccccc1 (stereo not given) | > 100 µM (inactive) | > 100 µM (inactive) | 6.32 µM (inactive) | > 100 µM (inactive) | 2.92 µM (inactive) | 57.7 µM (inactive) | 20 µM (inactive) | > 100 µM (inactive) | > 100 µM (inactive) | > 100 µM (inactive) | > 100 µM (inactive) | > 100 µM (inactive) | > 100 µM (inactive) | > 100 µM (inactive) | > 100 µM (inactive) | > 100 µM (inactive) | > 100 µM (inactive) | 23.2 µM (inactive) | > 100 µM (inactive)
2 | c1ccc(-c2nnn(CCN3CCCCC3)n2)cc1 | > 100 µM (inactive) | > 100 µM (inactive) | > 100 µM (inactive) | > 100 µM (inactive) | > 100 µM (inactive) | > 100 µM (inactive) | > 100 µM (inactive) | > 100 µM (inactive) | > 100 µM (inactive) | > 100 µM (inactive) | > 100 µM (inactive) | > 100 µM (inactive) | > 100 µM (inactive) | > 100 µM (inactive) | > 100 µM (inactive) | > 100 µM (inactive) | > 100 µM (inactive) | > 100 µM (inactive) | > 100 µM (inactive)
3 | COc1cc(-c2cc(O)c(-c3ccc4ccccc4n3)c(O)n2)cc(OC)c1OC | > 62.7 µM (inactive) | 19 µM (inactive) | 8.55 µM (inactive) | 57.4 µM (inactive) | 19.1 µM (inactive) | 25.4 µM (inactive) | 3.56 µM (inactive) | 13.1 µM (inactive) | 12.4 µM (inactive) | > 59.6 µM (inactive) | > 32.4 µM (inactive) | 42.1 µM (inactive) | 39.6 µM (inactive) | > 56.6 µM (inactive) | > 75.7 µM (inactive) | 17.9 µM (inactive) | 1.77 µM (inactive) | 97.5 µM (inactive) | 69.7 µM (inactive)
4 | Cc1ccc2nc(N/N=C/c3cccc(C)n3)cc(C)c2c1 | 15.7 µM (inactive) | 14.7 µM (inactive) | 2.26 µM (inactive) | 23.8 µM (inactive) | 15.1 µM (inactive) | 24.2 µM (inactive) | 16.3 µM (inactive) | 16 µM (inactive) | 14 µM (inactive) | 14.3 µM (inactive) | 20.5 µM (inactive) | 17.1 µM (inactive) | 15.4 µM (inactive) | 17.2 µM (inactive) | 20.5 µM (inactive) | 19.7 µM (inactive) | 16.4 µM (inactive) | 16 µM (inactive) | 14.7 µM (inactive)
5 | Oc1ccc(-c2cc(-c3c(O)cc(O)cc3O)on2)cc1 | 36.4 µM (inactive) | 42.5 µM (inactive) | > 100 µM (inactive) | 38.2 µM (inactive) | 55.1 µM (inactive) | > 100 µM (inactive) | 50.2 µM (inactive) | 70.5 µM (inactive) | > 100 µM (inactive) | > 100 µM (inactive) | 55.6 µM (inactive) | 52.8 µM (inactive) | 56.5 µM (inactive) | 80.5 µM (inactive) | 91.2 µM (inactive) | 74.5 µM (inactive) | 81.3 µM (inactive) | 45.5 µM (inactive) | 55.1 µM (inactive)
6 | Cc1ccc([N+](=O)[O-])cc1S(=O)(=O)Nc1ccc(C2=NN(S(=O)(=O)c3cc([N+](=O)[O-])ccc3C)C(c3ccco3)C2)cc1 (stereo not given) | 36.6 µM (inactive) | 31.9 µM (inactive) | 38.8 µM (inactive) | > 100 µM (inactive) | 39 µM (inactive) | 42 µM (inactive) | 43.9 µM (inactive) | 47.2 µM (inactive) | 37.1 µM (inactive) | > 100 µM (inactive) | 44.5 µM (inactive) | > 100 µM (inactive) | > 100 µM (inactive) | 44.8 µM (inactive) | 46.1 µM (inactive) | > 100 µM (inactive) | 33.5 µM (inactive) | 28.6 µM (inactive) | 
7 | O=C1N/C(=N\N=C\c2ccccc2)C2(CCCCC2)O1 | > 100 µM (inactive) | 59.2 µM (inactive) | 32.9 µM (inactive) | 46.8 µM (inactive) | 56.5 µM (inactive) | > 100 µM (inactive) | > 100 µM (inactive) | > 100 µM (inactive) | 44.9 µM (inactive) | > 100 µM (inactive) | 99.5 µM (inactive) | > 100 µM (inactive) | > 100 µM (inactive) | 95.3 µM (inactive) | > 100 µM (inactive) | 20.5 µM (inactive) | 16.3 µM (inactive) | > 100 µM (inactive) | 74.6 µM (inactive)
8 | CN(C)c1ccc(/C=C2\C[C@H]3[C@@H]4CC=C5C[C@@H](N6CCCC6)CC[C@]5(C)[C@H]4CC[C@]3(C)[C@H]2O)cc1 | 0.873 µM (active) | 0.897 µM (active) | 1.15 µM (inactive) | 0.883 µM (active) | 0.787 µM (active) | 0.773 µM (active) | 1.01 µM (active) | 0.938 µM (active) | 1.15 µM (inactive) | 3.99 µM (inactive) | 0.769 µM (active) | 0.977 µM (active) | 4.39 µM (inactive) | 1.22 µM (inactive) | 1.5 µM (inactive) | 0.959 µM (active) | 0.773 µM (active) | 0.998 µM (active) | 1.24 µM (inactive)
9 | CCOC(=O)[C@H]1C[C@]23CN(C(=O)OC(C)(C)C)CC[C@H]2CCC2(SCCCS2)[C@@H]3N1C | 40.9 µM (inactive) | 31.8 µM (inactive) | 20.7 µM (inactive) | 51.6 µM (inactive) | 30.9 µM (inactive) | 30.8 µM (inactive) | 30.1 µM (inactive) | 28.4 µM (inactive) | 48.2 µM (inactive) | 50.5 µM (inactive) | 37.8 µM (inactive) | 91 µM (inactive) | > 100 µM (inactive) | 21.3 µM (inactive) | 76 µM (inactive) | 72.9 µM (inactive) | 24 µM (inactive) | 25.8 µM (inactive) | 36.6 µM (inactive)
10 | CSC(=O)c1sc(SC)[n+](-c2ccccc2)c1O | 27.9 µM (inactive) | 16.8 µM (inactive) | > 10 µM (inactive) | 28.3 µM (inactive) | 12.6 µM (inactive) | 14.3 µM (inactive) | 17 µM (inactive) | 21.6 µM (inactive) | 13.2 µM (inactive) | 18.7 µM (inactive) | 22.8 µM (inactive) | 17.7 µM (inactive) | 34.4 µM (inactive) | 19.6 µM (inactive) | 19.6 µM (inactive) | 13.1 µM (inactive) | 29.8 µM (inactive) | 7.35 µM (inactive) | 18.2 µM (inactive)
11 | CCOC(=O)c1cccc(NC(=O)CI)c1 | 0.682 µM (active) | 0.301 µM (active) | 0.653 µM (active) | 2.34 µM (inactive) | 0.123 µM (active) | 0.23 µM (active) | 0.211 µM (active) | 1.21 µM (inactive) | 0.391 µM (active) | 1.64 µM (inactive) | 0.264 µM (active) | 2.2 µM (inactive) | 0.918 µM (active) | 0.29 µM (active) | 3.54 µM (inactive) | 1.42 µM (inactive) | 0.0262 µM (active) | 1.39 µM (inactive) | 0.897 µM (active)
12 | O=C1Nc2ccccc2C1(O)Cc1ccccn1 (stereo not given) | > 100 µM (inactive) | > 100 µM (inactive) | > 100 µM (inactive) | > 100 µM (inactive) | > 100 µM (inactive) | > 100 µM (inactive) | > 100 µM (inactive) | > 100 µM (inactive) | > 100 µM (inactive) | > 100 µM (inactive) | > 100 µM (inactive) | > 100 µM (inactive) | > 100 µM (inactive) | > 100 µM (inactive) | > 100 µM (inactive) | 43.1 µM (inactive) | > 100 µM (inactive) | > 100 µM (inactive) | > 100 µM (inactive)
13 | O=P(Oc1ccccc1)(Oc1ccccc1)Oc1c[nH]c2ccccc12 |  | 15.2 µM (inactive) | 21.7 µM (inactive) | 13.3 µM (inactive) | 14.6 µM (inactive) | 11.3 µM (inactive) | 11 µM (inactive) | 16.2 µM (inactive) | 14.5 µM (inactive) | 0.0449 µM (active) | 13.5 µM (inactive) | 12.7 µM (inactive) | 3.44 µM (inactive) | 11.6 µM (inactive) | 13.1 µM (inactive) | 10.8 µM (inactive) | 25.4 µM (inactive) | 8.91 µM (inactive) | 12.1 µM (inactive)
14 | Cc1cc(C)nc(NS(=O)(=O)c2ccc(Nc3c4ccccc4nc4c(C(=O)NCCO)cccc34)cc2)n1 | 19.7 µM (inactive) |  | 31.8 µM (inactive) | 53.1 µM (inactive) | 10.6 µM (inactive) | 31.1 µM (inactive) | 18.1 µM (inactive) | 14.8 µM (inactive) | 19.8 µM (inactive) | 24.5 µM (inactive) | 8.24 µM (inactive) | 19.6 µM (inactive) | 44.9 µM (inactive) | 15 µM (inactive) | 16.6 µM (inactive) | 3.27 µM (inactive) | 10.7 µM (inactive) | 25.9 µM (inactive) | 
15 | CNC(=S)N/N=C(\C)c1ccc(OC)cc1O | > 100 µM (inactive) | > 100 µM (inactive) | 0.841 µM (active) | > 89.9 µM (inactive) | > 100 µM (inactive) | > 100 µM (inactive) | > 100 µM (inactive) | > 100 µM (inactive) | > 100 µM (inactive) | > 100 µM (inactive) | > 100 µM (inactive) | > 100 µM (inactive) | > 100 µM (inactive) | > 91.4 µM (inactive) | > 100 µM (inactive) | > 100 µM (inactive) | 29.3 µM (inactive) | > 100 µM (inactive) | 
